Test results as given in patent US20250171438A1 (Agios Pharmaceuticals, Inc., priority 2022, published 2025).

Target: T1, human PAH with the R408W mutation (Homo sapiens, UniProt P00439, R408W)
T1 construct: expressed in transfected cells
T1 sequence (P00439 1-452 R408W): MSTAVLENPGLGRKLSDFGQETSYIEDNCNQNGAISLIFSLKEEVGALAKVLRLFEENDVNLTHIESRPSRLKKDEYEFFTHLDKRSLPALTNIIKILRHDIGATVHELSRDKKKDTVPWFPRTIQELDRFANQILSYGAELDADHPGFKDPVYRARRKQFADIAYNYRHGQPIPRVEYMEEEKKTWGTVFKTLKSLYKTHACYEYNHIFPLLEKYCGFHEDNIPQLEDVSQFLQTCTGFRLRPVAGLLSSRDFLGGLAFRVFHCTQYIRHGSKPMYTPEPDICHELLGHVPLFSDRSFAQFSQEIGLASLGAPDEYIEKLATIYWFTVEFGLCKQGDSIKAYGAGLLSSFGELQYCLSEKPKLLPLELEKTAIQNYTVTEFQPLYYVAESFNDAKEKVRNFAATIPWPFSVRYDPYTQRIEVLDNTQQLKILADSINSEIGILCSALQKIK
Assay: Cell Based Phenylalanine Flux Assay
Conditions: A375 cells expressing human R408W PAH; 24 hrs compound incubation; 13C-Tyrosine by LC-MS; average where tested multiple times; read-out: AC50

Row | AC50 | Compound
1 | > 5000 nM | O=C(c1nncs1)N1CCc2[nH]cnc2[C@@H]1c1nc2ccc(Cl)cc2[nH]1 [Example 957, (R)-(4-(6-chloro-1H-benzo[d]imidazol-2-yl)-6,7-dihydro-1H-imidazo[4,5-c]pyridin-5(4H)-yl)(1,3,4-thiadiazol-2-yl)methanone]
2 | 500 to 1000 nM | O=C(c1nncs1)N1CCc2[nH]cnc2[C@H]1c1nc2ccc(Cl)cc2[nH]1 [Example 958, (S)-(4-(6-chloro-1H-benzo[d]imidazol-2-yl)-6,7-dihydro-1H-imidazo[4,5-c]pyridin-5(4H)-yl)(1,3,4-thiadiazol-2-yl)methanone]
3 | > 5000 nM | O=C(C1CC1)N1CCc2[nH]cnc2[C@@H]1c1nc2ccc(Cl)cc2[nH]1 [Example 959, (R)-(4-(6-chloro-1H-benzo[d]imidazol-2-yl)-6,7-dihydro-1H-imidazo[4,5-c]pyridin-5(4H)-yl)(cyclopropyl)methanone]
4 | 1000 to 5000 nM | O=C(C1CC1)N1CCc2[nH]cnc2[C@H]1c1nc2ccc(Cl)cc2[nH]1 [Example 960, (S)-(4-(6-chloro-1H-benzo[d]imidazol-2-yl)-6,7-dihydro-1H-imidazo[4,5-c]pyridin-5(4H)-yl)(cyclopropyl)methanone]
5 | > 5000 nM | O=C(CCC1CC1)N1CCc2[nH]cnc2[C@@H]1c1nc2ccc(F)cc2[nH]1 [Example 961, (R)-3-cyclopropyl-1-(4-(6-fluoro-1H-benzo[d]imidazol-2-yl)-6,7-dihydro-1H-imidazo[4,5-c]pyridin-5(4H)-yl)propan-1-one]
6 | < 500 nM | O=C(CCC1CC1)N1CCc2[nH]cnc2[C@H]1c1nc2ccc(F)cc2[nH]1 [Example 962, (S)-3-cyclopropyl-1-(4-(6-fluoro-1H-benzo[d]imidazol-2-yl)-6,7-dihydro-1H-imidazo[4,5-c]pyridin-5(4H)-yl)propan-1-one]
7 | 1000 to 5000 nM | O=C(CC1CC1)N1CCc2[nH]cnc2[C@@H]1c1nc2ccc(F)cc2[nH]1 [Example 963, (R)-2-cyclopropyl-1-(4-(6-fluoro-1H-benzo[d]imidazol-2-yl)-6,7-dihydro-1H-imidazo[4,5-c]pyridin-5(4H)-yl)ethanone]
8 | 500 to 1000 nM | O=C(CC1CC1)N1CCc2[nH]cnc2[C@H]1c1nc2ccc(F)cc2[nH]1 [Example 964, (S)-2-cyclopropyl-1-(4-(6-fluoro-1H-benzo[d]imidazol-2-yl)-6,7-dihydro-1H-imidazo[4,5-c]pyridin-5(4H)-yl)ethanone]
9 | 1000 to 5000 nM | O=C(c1cnn2ccc(Cl)cc12)N1CCc2[nH]cnc2[C@H]1c1nc2ccc(Br)cc2[nH]1 [Example 965, (S)-(4-(6-bromo-1H-benzo[d]imidazol-2-yl)-6,7-dihydro-1H-imidazo[4,5-c]pyridin-5(4H)-yl)(5-chloropyrazolo[1,5-a]pyridin-3-yl)methanone]
10 | > 5000 nM | O=C(c1cnn2ccc(Cl)cc12)N1CCc2[nH]cnc2[C@@H]1c1nc2ccc(Br)cc2[nH]1 [Example 966, (R)-(4-(6-bromo-1H-benzo[d]imidazol-2-yl)-6,7-dihydro-1H-imidazo[4,5-c]pyridin-5(4H)-yl)(5-chloropyrazolo[1,5-a]pyridin-3-yl)methanone]
11 | 500 to 1000 nM | O=C(c1cnn2cc(F)ccc12)N1CCc2[nH]cnc2[C@H]1c1nc2ccc(Br)cc2[nH]1 [Example 967, (S)-(4-(6-bromo-1H-benzo[d]imidazol-2-yl)-6,7-dihydro-1H-imidazo[4,5-c]pyridin-5(4H)-yl)(6-fluoropyrazolo[1,5-a]pyridin-3-yl)methanone]
12 | 500 to 1000 nM | O=C(c1ccon1)N1CCc2[nH]cnc2[C@H]1c1nc2ccc(Cl)cc2[nH]1 [Example 969, (S)-(4-(6-chloro-1H-benzo[d]imidazol-2-yl)-6,7-dihydro-1H-imidazo[4,5-c]pyridin-5(4H)-yl)(isoxazol-3-yl)methanone]
13 | 1000 to 5000 nM | O=C(c1ccon1)N1CCc2[nH]cnc2[C@@H]1c1nc2ccc(Cl)cc2[nH]1 [Example 970, (R)-(4-(6-chloro-1H-benzo[d]imidazol-2-yl)-6,7-dihydro-1H-imidazo[4,5-c]pyridin-5(4H)-yl)(isoxazol-3-yl)methanone]
